According to PMC11532403 (Signal Transduction and Targeted Therapy, 2024):

Key:
[1] = Excretion in rats (feces, urine, bile); format: in vivo
Experimental: The total fecal and urinary excretion of prodrug and metabolite was 62.8% of the administered dose. The amount of prodrug and metabolite in bile from 0 to 48 h in bile duct-intubated rats was 5.22% of the administered dose, of which 0.656% was prodrug and 4.57% was metabolite.

RET-driven xenografts = assay: RET-driven xenograft models, overall; format: in vivo, mice; conditions: for Effective tumor suppressant dose (mg/kg): tumor-bearing mice
Experimental: All procedures relating to animal handling, care, and treatment were performed according to the Beijing Laboratory Animal Management Regulations. 6-week-old male BALB/c nude mice were inoculated subcutaneously into the flank with Baf3-CCDC6-RET^WT (5*10^6 cells/ 0.1 mL/ each), Baf3-CCDC6-RET^M918T (5*10^6 cells/0.1 mL/each), Baf3-CCDC6-RET^V804M (5*10^6 cells/ 0.1 mL/ each), or HEK293T-KIF5B-RET^V804M (5*10^6 cells/ 0.1 mL/ each). Mice were randomized by tumor size into groups of 10 to 12 when tumor volume reached approximately 100-150 mm^3. […] Tumor size and body weight were measured two times each week, and tumor volume was calculated with the following formula: [length × (width)^2]/ 2. Statistical significance was calculated by using two-way ANOVA test to assess the difference in tumor volumes between the control (vehicle-treated) and treatment groups.
Supplementary Figure S1. […] Mice bearing Baf3-CCDC6-RET^WT (a), Baf3-CCDC6-RET^M918T (b) and Baf3-CCDC6-RET^V804M (c) xenograft and time course of treatment. Data represent mean ± standard error of the mean (SEM). There were 12 mice in each group in both models. d, Mice bearing HEK293T-KIF5B-RET^V804M xenograft and time course of treatment. Data represent mean ± SEM. There were 10 mice in each group in this model. […] Statistical analysis was performed using a two-way ANOVA test. *, […]; **, p < 0.01; ***, p < 0.001; ****, p < 0.0001. Abbreviations: bid, bis in die; mc, methyl cellulose; mpk, mg/Kg.

RET alterations in ctDNA = assay: ctDNA profiling (1021-gene NGS panel); format: in vivo, human; conditions: Cycle 1 Day 28, of 23 patients
Experimental: A retrospective analysis of circulating tumor DNA (ctDNA) profiling was performed using longitudinal plasma samples obtained at baseline, Cycle 1 Day 28, and post-progressive disease. At baseline, blood samples from all patients were subjected for NGS. Among them, 67 (54.9%) patients had detectable RET alterations in ctDNA, including KIF5B-RET (51/122, 41.8%), CCDC6-RET (5/122, 4.1%), NCOA4-RET (3/122, 2.5%), RET^M918T mutation (7/122, 5.7%) and other RET variation (1/122, 0.8%).
For molecular profiling, plasma samples were collected at baseline, Cycle 1 Day 28, and post-progressive disease, and the ctDNA were isolated for analysis. Gene alteration status was analyzed at a central laboratory using a validated, commercially available 1021-gene NGS panel (GenePlus, Beijing, China).

RET^M918T = molecular target: T1, RET^M918T (Homo sapiens, UniProt P07949, M918T); assay: HTRF kinEASE-TK kinase assay; conditions: ATP at Km; read-out: Biochemical IC50 RET^M918T
T1 construct: RET (residues 658-1114) was cloned into pFastBac vector containing an N-terminal Glutathione S-transferase (GST) tag; made in house; host or cells: Sf9 insect cells (baculovirus)
T1 sequence (P07949 658-1114 M918T): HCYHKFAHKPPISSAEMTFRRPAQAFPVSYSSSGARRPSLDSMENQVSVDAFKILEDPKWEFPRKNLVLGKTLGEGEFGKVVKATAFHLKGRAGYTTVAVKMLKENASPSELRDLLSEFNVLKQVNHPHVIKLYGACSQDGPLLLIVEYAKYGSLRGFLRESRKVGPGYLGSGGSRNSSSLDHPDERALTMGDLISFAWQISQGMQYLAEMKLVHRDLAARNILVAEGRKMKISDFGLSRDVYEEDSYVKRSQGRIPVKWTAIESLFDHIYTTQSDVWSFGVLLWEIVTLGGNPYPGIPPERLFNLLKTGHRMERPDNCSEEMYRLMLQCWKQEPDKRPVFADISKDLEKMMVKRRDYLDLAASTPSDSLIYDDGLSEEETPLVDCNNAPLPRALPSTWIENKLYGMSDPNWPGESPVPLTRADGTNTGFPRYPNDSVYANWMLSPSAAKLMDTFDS
Experimental: (§1) RET (residues 658-1114) was cloned into pFastBac vector containing an N-terminal Glutathione S-transferase (GST) tag. Mutagenesis was performed on this vector to generate the RET^V804M single mutant: RETV804MmutF: […]a[…] and RETV804MmutR: […]t[…]; the RET^M918T single mutant: RETM918TmutF: […]c[…] and RETM918TmutR: […]g[…]; the RET^G810S single mutant: RETG810SmutF: […]tc[…] and RETG810SmutR: […]ga[…]. Recombinant baculovirus for expression of GST-RET was generated by co-transfection of Sf9 cells. Plaque-purified viruses were amplified, titrated and used to infect Sf9 cells incubated at 27 °C and 80 rpm. Cells were harvested 72 h post infection for protein purification.
(§2) Frozen cell pellets (1 liter culture/each) were thawed and resuspended in 20 ml of buffer A (50mM Tris-HCl, pH 7.5, 150mM NaCl, 0.1mM EDTA, 0.5% Triton X-100, 20% glycerol and 1* protease inhibitor [#539134-1SETCN, Merck]) and sonicated. The cell lysates were centrifuged at 20000 rpm for 40 min at 4 °C, then applied to GSH-Sepharose 4 Fast Flow (GE Healthcare) at 4 °C. After washing twice with 10 mL of buffer B (50mM Tris-HCl, pH 7.5, 150mM NaCl, 0.1 mM EDTA, 20% glycerol), the protein was eluted with elution buffer (50mM Tris-HCl, pH 7.5, 150mM NaCl, 0.1mM EDTA, 20% glycerol, 20mM Glutathione, 1 mM DTT) and concentrated using Amicon Ultra-15. Purities of proteins were 90% as determined by SDS-PAGE and Coomassie Blue stain.
(§3) Kinase activity was detected using CisBio HTRF kinEASE-TK kit. The assay was performed in 384-well white plates (#3574, Corning) in a reaction volume of 10 μL containing a final concentration of 50 mM HEPES, pH 7.5, 0.1 mM Na3VO4,0.01% BSA, 0.001% Tween-20, 5 mM MgCl2, […], 1 mM DTT, 1 μM TK-Substrate-biotin. The reaction was initiated by the addition of ATP at Km and indicated recombinant RET proteins. […] After incubation at 23 °C for 1 hour, FRET signal was measured on an EnVision reader (PerkinElmer Inc.).

RET^WT = molecular target: T2, RET^WT (Homo sapiens, UniProt P07949); assay: HTRF kinEASE-TK kinase assay; conditions: ATP at Km; read-out: Biochemical IC50 RET^WT
T2 construct: RET (residues 658-1114) was cloned into pFastBac vector containing an N-terminal Glutathione S-transferase (GST) tag; made in house; host or cells: Sf9 insect cells (baculovirus)
T2 sequence (P07949 658-1114): as the sequence (P07949 658-1114 M918T) above, with T261M counted along it
Experimental: as §1, §2, §3

RET^G810S = molecular target: T3, RET^G810S (Homo sapiens, UniProt P07949, G810S); assay: HTRF kinEASE-TK kinase assay; conditions: ATP at Km; read-out: Biochemical IC50 RET^G810S
T3 construct: RET (residues 658-1114) was cloned into pFastBac vector containing an N-terminal Glutathione S-transferase (GST) tag; made in house; host or cells: Sf9 insect cells (baculovirus)
T3 sequence (P07949 658-1114 G810S): as the sequence (P07949 658-1114 M918T) above, with G153S, T261M counted along it
Experimental: as §1, §2, §3

CYP1A2 = assay: CYP induction in hepatocytes; format: in vitro ADME, human; conditions: 1, 5, 50 μM, three donors
CYP3A4 = assay: CYP induction in hepatocytes; format: in vitro ADME, human; conditions: 1, 5, 50 μM, three donors

## COc1ccc(CN2C3CC2CN(c2ccc(-c4cc(N5CC(C)(O)C5)cn5ncc(C#N)c45)cn2)C3)cn1 [SY-5007, 6-(3-hydroxy-3-methylazetidin-1-yl)-4-(6-(6-((6-methoxypyridin-3-yl)methyl)-3,6-diazabicyclo[3.1.1]heptan-3-yl)pyridin-3-yl)pyrazolo[1,5-a]pyridine-3-carbonitrile]
[1]; 20 mg/kg gavage
  Fecal excretion, prodrug (parent): 55.4%
  Urinary excretion, prodrug (parent): 0.801%
[1]; bile duct-intubated rats
  Bile excretion, prodrug (parent): 0.656%
RET-driven xenografts; mouse, in vivo
  Minimal effective dose (significant tumor growth inhibition in most models): 10 mg/kg BID
RET-driven xenografts; daily dose of 3 mg/kg BID
  Effective tumor suppressant dose (mg/kg): 6(3 mg/kg BID)
RET-driven xenografts; daily dose of 6 mg/kg BID
  Effective tumor suppressant dose (mg/kg): 12(6 mg/kg BID)
RET alterations in ctDNA
  Patients with complete RET clearance in ctDNA: 21 patients
RET^M918T
  IC50: 0.84 nM
RET^WT
  IC50: 0.339 nM
RET^G810S
  IC50: 2.07 nM
CYP1A2
  CYP1A2 induction: no induction
CYP3A4
  CYP3A4 induction: no induction
